Data on 78 compounds can be found in the METLIN SMRT retention time set (Domingo-Almenara et al. 2019).

This data set in a line: gradient 5% acetonitrile 3 min, to 50% in 2 min, to 85% in 15 min, held 3 min, 100 µL/min. The following applies: column: Zorbax Extend-C18 2.1 x 50 mm; eluents: water / acetonitrile, 0.1% formic acid. The method in brief:
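Each retention time is based on an adduct peak selected computationally and verified by manual inspection. Measurements used HPLC–quadrupole time-of-flight mass spectrometry in positive and negative ionization mode on mixtures of ~100 pure standards. Chromatography ran on a Zorbax Extend-C18 column (2.1 × 50 mm, 1.8 μm) at 100 μL/min with water and acetonitrile, each containing 0.1% formic acid, and dead and dwell volumes of 40 μL and 900 μL.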
As for `CCCCN(C)C(=O)CC1Sc2ncccc2N(CC(C)C)C1=O` (stereo not drawn), the RP-LC retention time is 876 s.

Compound `Cc1cccc(C)c1-n1ccn(Cc2nc(-c3ccccc3)no2)c(=O)c1=O` returned an RP-LC retention time of 865 s.

In turn, `O=C(c1ccco1)C(C(c1cccc(Cl)c1)N1CCOCC1)N1CCOCC1` (stereo not drawn) displayed an RP-LC retention time of 782 s.

Take `Cc1noc(C2(NC(=O)c3ccc4ccccc4n3)CCCCC2)n1`: the RP-LC retention time was determined as 1060 s.

For the compound `O=C(NCCC1=CCCCC1)C1CCCN(c2nc3ccccc3n(Cc3ccccc3)c2=O)C1` (stereo not drawn), the RP-LC retention time worked out at 1310 s.

In turn, `Cc1ccc(OCC(=O)N2C[C@@H]3C[C@H]2C[C@@H]3NS(=O)(=O)c2ccccc2)cc1` displayed an RP-LC retention time of 764 s.

`COc1cccc(S(=O)(=O)N2CCC(N3CCN(Cc4ccccc4)C(=O)C3=O)CC2)c1`: the RP-LC retention time is 763 s.

Regarding `Clc1cc(Cl)cc(-c2ccc(CNCc3ccccn3)o2)c1`, the RP-LC retention time was 742 s.

The compound `CCCN(C(=O)Nc1cccc(C)c1C)c1nc(-c2ccc(C3CCCCC3)cc2)cs1` displayed an RP-LC retention time of 619 s.

In turn, `O=C(O)c1cccn2c(=O)c3ccccc3nc12` displayed an RP-LC retention time of 627 s.

With `COc1ccc(-c2cc(C(=O)Nc3cc(F)cc(F)c3)sn2)cc1`, the RP-LC retention time amounted to 1200 s.

The compound `O=C(CNS(=O)(=O)c1ccc(F)cc1)N1CCCC1c1nc(-c2ccc(Cl)cc2)no1` (stereo not drawn) displayed an RP-LC retention time of 990 s.

For the compound `COc1ccc(NC(=O)CSc2nnc(CNC(=O)c3cccs3)o2)c(OC)c1`, the RP-LC retention time is 614 s.

`Cc1ccc2c(c1)N(S(C)(=O)=O)CCC(C(=O)NCc1ccco1)O2` (stereo not drawn) yielded an RP-LC retention time of 793 s.

The compound `COc1cccc(N2CCN(c3ccnc(SCC(=O)Nc4cc(OC)ccc4OC)n3)CC2)c1` had an RP-LC retention time of 818 s.

For the compound `CCCCN1C(=O)C(C)(C(=O)Nc2cccc(F)c2)Oc2cccnc21` (stereo not drawn), the RP-LC retention time stood at 924 s.

Compound `CCOc1ccc(Cl)cc1S(=O)(=O)N1CCC(C(=O)Nc2ccc3c(c2)OCCO3)CC1` showed an RP-LC retention time of 1150 s.

The compound `Cc1nc(NC(=O)CNC(=O)c2c[nH]c3ccccc23)sc1C(=O)N(C)C` came in with an RP-LC retention time of 614 s.

As to `O=C(C1CC1)N1CCc2ccc(NS(=O)(=O)C3CCCCC3)cc21`, the RP-LC retention time was found to be 830 s.

For the compound `O=C(CCCN1C(=O)c2cccc3cccc(c23)C1=O)N1CCN(c2ccccc2)CC1`, the RP-LC retention time is 866 s.

In turn, `CCc1nc(N2CCNCC2)c(C#N)c2c1COC(C)(C)C2` gave an RP-LC retention time of 627 s.

Turning to `CC(C)NC(=O)CN1CCN(Cc2nc(-c3ccc(N4CCCCC4)nc3)no2)CC1`, the RP-LC retention time was 594 s.

`Cc1ccc(S(=O)(=O)N2CCC3(CC2)NCCN=C3NCc2cc(F)cc(F)c2)cc1C` displayed an RP-LC retention time of 798 s.

`COc1cc([C@@H]2c3cc4c(cc3[C@H](O)[C@@H](CO)[C@@H]2C(=O)NCCC2=CCCCC2)OCO4)cc(OC)c1OC` yielded an RP-LC retention time of 781 s.

In turn, `O=c1c2cc(-c3ccc(Cl)cc3)nn2ccn1Cc1nc(-c2ccccn2)no1` gave an RP-LC retention time of 894 s.

`Cc1cnc(-c2cccnc2)n1C1CCN(S(=O)(=O)c2ccc3c(c2)OCCO3)C1` (stereo not drawn): the RP-LC retention time was determined as 633 s.

Turning to `CN(Cc1ccoc1)C(=O)Nc1ccc(F)cc1`, the RP-LC retention time came to 797 s.

On to `CCOc1ccc(-c2noc(CSc3nccn3-c3ccc(C)cc3)n2)cc1OC`, for which the RP-LC retention time was 908 s.

The compound `CCn1cc(-c2nc(C)c(C(=O)Nc3cc(F)cc(F)c3)s2)c2cccnc21` showed an RP-LC retention time of 1120 s.

Turning to `Cc1nn(C)c(C)c1S(=O)(=O)N1CCO[C@@H](COc2ccccn2)[C@@H]1c1ccccc1`, the RP-LC retention time worked out at 850 s.

`O=C(NC1CCCCC1)c1ccc(CN2CCN(C3CCCC3)C(=O)C2=O)cc1`: the RP-LC retention time amounted to 831 s.

As for `CCCCNC(=O)C1CC(=O)N(c2n[nH]c3cccc(F)c23)C1` (stereo not drawn), the RP-LC retention time is 660 s.

For `CC(=O)Nc1c(C)nn(-c2ccccc2)c1N1CCC(C(=O)NCCCN2CCCC2=O)CC1`, the RP-LC retention time was found to be 605 s.

Regarding `CCOc1ccc(-c2ccc(N3CCN(C(=O)c4ccc5ncsc5c4)CC3)nn2)cc1`, the RP-LC retention time was found to be 629 s.

With `O=C(Nc1cccnc1)C1CCN(S(=O)(=O)c2cc(-c3noc(C4CCC4)n3)cs2)CC1`, the RP-LC retention time was determined as 762 s.

For `CCc1cccc(NC(=O)Nc2c(-c3ccncc3)nc3ccccn23)c1`, the RP-LC retention time is 630 s.

Consider `COc1ccc(CC(C)(O)CNC(=O)C2CC2)cc1` (stereo not drawn), for which the RP-LC retention time was 631 s.

`Cc1c(-c2noc(C(=O)N3CCN(Cc4ccc5c(c4)OCO5)CC3)n2)oc2c(C)cccc12` came in with an RP-LC retention time of 837 s.

`COc1ccc(C(=O)Nc2nsc(-c3ccccc3)n2)cc1` had an RP-LC retention time of 778 s.

In the case of `Cn1nc2c(c1NC(=O)C1(c3ccc(Cl)cc3)CCCC1)CCC2`, the RP-LC retention time is 907 s.

On to `COc1ccc(N2CCN(C3CC(=O)N(Cc4ccc(N5CCCC5=O)cc4)C3=O)CC2)cc1` (stereo not drawn), for which the RP-LC retention time amounted to 662 s.

The compound `CCC1CCCCN1C(=O)c1cnc2nc(C)ccc2c1Nc1ccccc1OC` (stereo not drawn) returned an RP-LC retention time of 661 s.

As to `O=C(CCc1cn(Cc2ccccc2Cl)c2ccccc12)N1CCN(c2ccccn2)CC1`, the RP-LC retention time worked out at 796 s.

Regarding `COc1cccc(-c2nc(NCc3cccnc3)ncc2C(=O)O)c1`, the RP-LC retention time turned out to be 576 s.

In turn, `CCNC(=O)N1CCC(c2noc(-c3cnccn3)n2)C1` (stereo not drawn) came in with an RP-LC retention time of 608 s.

Take `Cc1ccccc1NC(=O)C1C(=O)N(CCO)C2(C)CC1c1ccccc1O2` (stereo not drawn): the RP-LC retention time is 653 s.

As to `Cc1ccc2c(Nc3ccc(C(C)C)cc3)c(C(=O)N3CCCCC3C)cnc2n1` (stereo not drawn), the RP-LC retention time is 737 s.

Compound `COCc1nc2cccnc2n1C1CCN(C(=O)Nc2cc(OC)cc(OC)c2)CC1` showed an RP-LC retention time of 696 s.

`Cc1ccc(N2CC(c3nc(-c4ccc5c(c4)nc(C)c(=O)n5C4CCCC4)no3)CC2=O)cc1` (stereo not drawn): the RP-LC retention time came to 1100 s.

With `CCc1ccc(C2=C(C)C(N3CCCN(C(=O)C(C)(C)C)CC3)=NS2(=O)=O)cc1`, the RP-LC retention time came to 901 s.

The compound `COc1ccc(-c2nc(-c3cn(Cc4ccc(F)cc4)nn3)no2)cc1` returned an RP-LC retention time of 963 s.

`Cn1c(=O)n(C)c2cc(CNc3ccc(Cl)cc3Cl)ccc21` came in with an RP-LC retention time of 1070 s.

In turn, `CC(C)NC(=O)N1CCC(Oc2ccccc2)C1` (stereo not drawn) yielded an RP-LC retention time of 764 s.

Regarding `Cc1nc2ccn(Cc3ccco3)c(=O)c2cc1C(=O)NCCC(C)C`, the RP-LC retention time was 776 s.

The compound `Cc1ccnc(NS(=O)(=O)c2ccc(NC(=O)c3cn(C)nc3C)cc2)n1` had an RP-LC retention time of 589 s.

Compound `O=C(NCc1nc(-c2ccc(Oc3ccc(Cl)cc3)cc2)no1)c1ccco1` came in with an RP-LC retention time of 987 s.

`CC(C)N1CCN(C(=O)c2csc(N3CCN(c4ccccc4)CC3)n2)CC1` displayed an RP-LC retention time of 578 s.

Turning to `O=C(Nc1cccc(-c2nnc3n2CCCC3)c1)c1ccn[nH]1`, the RP-LC retention time came to 595 s.

Regarding `CCOC(=O)c1c(C)c(CCC(=O)NCc2ccco2)n(C)c1C`, the RP-LC retention time amounted to 792 s.

With `COc1ccc(-c2noc(-c3cccn3CC(=O)NCc3ccco3)n2)cc1F`, the RP-LC retention time turned out to be 984 s.

The compound `CCOc1ccc2c(n1)CCN(C(=O)Nc1ccc(C)cc1C)C2` came in with an RP-LC retention time of 852 s.

Compound `Cc1cc(C)cc(NC(=O)C2CCN(S(=O)(=O)c3cc(-c4noc(C5CC5)n4)cs3)CC2)c1` showed an RP-LC retention time of 1020 s.

Regarding `Cc1ccc(S(=O)(=O)N2CC(c3nnc(-c4ccncc4)o3)C3(CCOCC3)C2)cc1` (stereo not drawn), the RP-LC retention time came to 697 s.

Regarding `O=C(Nc1nc(-c2ccc3c(c2)OCO3)cs1)c1ccco1`, the RP-LC retention time amounted to 798 s.

In turn, `CCCCN(C)S(=O)(=O)c1ccccc1-c1nc(-c2ccc(F)cc2)no1` showed an RP-LC retention time of 1110 s.

In turn, `O=C(c1ccc(F)cc1Cl)N1CCC2(CC1)NC(=O)N(CCOc1ccccc1)C2=O` displayed an RP-LC retention time of 764 s.

On to `Cc1ccc(-n2nc(N3CCN(C(=O)Nc4cccc(C)c4)CC3)ccc2=O)cc1`, for which the RP-LC retention time was determined as 820 s.

As for `Cc1nnc2c(=O)n(CC(=O)NCc3cc(F)ccc3F)c3cccnc3n12`, the RP-LC retention time came out at 670 s.

The compound `Cc1sc2ccn(CC(C)C)c(=O)c2c1C(=O)NCCN1CCCCCC1` showed an RP-LC retention time of 684 s.

In the case of `Cc1cccc(NS(=O)(=O)c2c(C)sc(C)c2-c2n[nH]c(C)c2C)c1`, the RP-LC retention time is 1040 s.

As to `Cn1nc(Br)nc1Sc1ccccc1NC(=O)C1CC1`, the RP-LC retention time is 763 s.

Compound `CC(NC(=O)C1=C2CCCN2c2ccc(F)cc2S1(=O)=O)c1ccc(F)cc1` (stereo not drawn) displayed an RP-LC retention time of 935 s.

Compound `CN1c2ccc(F)cc2C(=O)NC12CCN(C(=O)c1ccc3c(c1)OCO3)CC2` yielded an RP-LC retention time of 724 s.

`Cc1ccc(S(=O)(=O)N2CCc3nc(NC(=O)c4ccnn4C)sc3C2)cc1`: the RP-LC retention time is 860 s.

`N=C(N)c1ccc2cc(OC(=O)c3ccc(N=C(N)N)cc3)ccc2c1` showed an RP-LC retention time of 595 s.

On to `Cn1c(N2CCCC(C(=O)NCC3CCN(Cc4ccccc4F)CC3)C2)cc(=O)n(C)c1=O` (stereo not drawn), for which the RP-LC retention time came to 579 s.

Compound `COc1ccc(-c2nc(-c3cccc(-c4ccn[nH]4)c3)no2)cc1` displayed an RP-LC retention time of 1000 s.

In turn, `Cc1cccc(N2CCN(C(=O)c3ccc(-c4csc(C5CC5)n4)cc3)CC2C)c1` (stereo not drawn) had an RP-LC retention time of 1120 s.
